Test results published in US20250101041A1, “POSITIVE ALLOSTERIC MODULATORS OF THE MUSCARINIC ACETYLCHOLINE RECEPTOR M4” (Vanderbilt University, priority 2022, published 2025).

Biological target: T1, human mAChR M4 (Homo sapiens, UniProt P08173)
T1 construct: expressed in transfected cells; host or cells: CHO-K1 (American Type Culture Collection), stably expressing hM4 and Gqi5
T1 sequence (P08173 1-479): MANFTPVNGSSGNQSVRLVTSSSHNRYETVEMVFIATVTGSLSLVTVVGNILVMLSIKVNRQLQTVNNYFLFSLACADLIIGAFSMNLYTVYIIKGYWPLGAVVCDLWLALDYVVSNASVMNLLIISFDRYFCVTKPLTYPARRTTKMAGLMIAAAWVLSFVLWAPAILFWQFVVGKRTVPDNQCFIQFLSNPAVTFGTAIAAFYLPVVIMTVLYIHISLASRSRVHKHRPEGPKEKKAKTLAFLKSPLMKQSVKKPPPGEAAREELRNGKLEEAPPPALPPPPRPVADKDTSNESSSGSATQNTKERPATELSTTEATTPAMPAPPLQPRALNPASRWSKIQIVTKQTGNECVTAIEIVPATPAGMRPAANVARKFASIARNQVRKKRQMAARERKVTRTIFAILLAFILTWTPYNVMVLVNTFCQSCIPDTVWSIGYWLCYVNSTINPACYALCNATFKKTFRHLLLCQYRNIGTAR
Assay: mAChR M4 cell-based functional assay: calcium mobilization (Fluo-4, FDSS), potentiation of EC20 acetylcholine response in hM4-Gqi5 CHO-K1 cells
Conditions: human M4; for Emax at 30 µM: CHO-K1, % ACh maximum at 30 μM; for EC50: potentiation of EC20 acetylcholine response, calcium mobilization
Procedure, shortened: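 CHO-K1 cells stably co-expressing human M4 and chimeric Gqi5, loaded with Fluo-4 AM (50 min, 37 °C). Compounds in 11-point 1:3 series added first; EC20 acetylcholine added at 144 s and again at 230 s. Calcium read on FDSS at 1 Hz; EC50 and Emax from four-parameter logistic fit of potentiated EC20 response.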

Row | Structure (SMILES) | Emax at 30 µM | EC50
1 | Cc1cc(=O)n2nc(N3CCc4ncc(-c5cnn(CCN6CCOCC6)c5)cc4C3)c(C)c(C)c2n1 [Compound 1-178, 2,8,9-trimethyl-7-(3-(1-(2-morpholinoethyl)-1H-pyrazol-4-yl)-7,8-dihydro-1,6-naphthyridin-6(5H)-yl)-4H-pyrimido[1,2-b]pyridazin-4-one] | 74% | 2510 nM
2 | Cc1cc2nc(C)c(Cl)c(=O)n2nc1N1CCc2ncc(C(F)(F)F)cc2C1 [Compound 1-28, 3-chloro-2,8-dimethyl-7-(3-(trifluoromethyl)-7,8-dihydro-1,6-naphthyridin-6(5H)-yl)-4H-pyrimido[1,2-b]pyridazin-4-one] | 86% | 40 nM
3 | Cc1cc2nccc(=O)n2nc1N1CCc2ncc(-c3ccccc3C3CC3)cc2C1 [Compound 1-440, 7-(3-(2-cyclopropylphenyl)-7,8-dihydro-1,6-naphthyridin-6(5H)-yl)-8-methyl-4H-pyrimido [1,2-b]pyridazin-4-one] | 56% | 380 nM
4 | Cc1cncc(-c2cnc3c(c2)CN(c2nn4c(=O)cc(C)nc4cc2C)CC3)c1 [Compound 1-289, 2,8-dimethyl-7-(3-(5-methylpyridin-3-yl)-7,8-dihydro-1,6-naphthyridin-6(5H)-yl)-4H-pyrimido[1,2-b] pyridazin-4-one] | 70% | 4550 nM
5 | Cc1cc(-c2cnc3c(c2)CN(c2nn4c(=O)cc(C)nc4cc2C)CC3)ccn1 [Compound 1-239, 2,8-dimethyl-7-(3-(2-methylpyridin-4-yl)-7,8-dihydro-1,6-naphthyridin-6(5H)-yl)-4H-pyrimido[1,2-b] pyridazin-4-one] | 78% | 98 nM
6 | Cc1cc(=O)n2nc(N3CCc4ncc(-c5ccccc5O)cc4C3)c(C)cc2n1 [Compound 1-235, 7-(3-(2-hydroxyphenyl)-7,8-dihydro-1,6-naphthyridin-6(5H)-yl)-2,8-dimethyl-4H-pyrimido[1,2-b]pyridazin-4-one] | 62% | 568 nM
7 | Cc1cc2nccc(=O)n2nc1N1CCc2ncc(-c3ccccc3C(C)C)cc2C1 [Compound 1-439, 7-(3-(2-isopropylphenyl)-7,8-dihydro-1,6-naphthyridin-6(5H)-yl)-8-methyl-4H-pyrimido [1,2-b]pyridazin-4-one] | 22% | 1230 nM
8 | Cc1nn(C)c(C)c1-c1cnc2c(c1)CN(c1nn3c(=O)cc(C(F)F)nc3c(C)c1C)CC2 [Compound 1-310, 2-(difluoromethyl)-8,9-dimethyl-7-(3-(1,3,5-trimethyl-1H-pyrazol-4-yl)-7,8-dihydro-1,6-naphthyridin-6(5H)-yl)-4H-pyrimido[1,2-b]pyridazin-4-one] | 86% | 136 nM
9 | Cc1ccc(-c2cnc3c(c2)CN(c2nn4c(=O)ccnc4cc2C)CC3)nn1 [Compound 1-353, 8-methyl-7-(3-(6-methylpyridazin-3-yl)-7,8-dihydro-1,6-naphthyridin-6(5H)-yl)-4H-pyrimido[1,2-b] pyridazin-4-one] | 55% | 1270 nM
10 | CCc1cc(=O)n2nc(N3CCc4ncc(-c5ccc(C)nc5)cc4C3)c(C)c(C)c2n1 [Compound 1-106, 2-ethyl-8,9-dimethyl-7-(3-(6-methylpyridin-3-yl)-7,8-dihydro-1,6-naphthyridin-6(5H)-yl)-4H-pyrimido[1,2-b]pyridazin-4-one] | 104% | 108 nM
11 | Cc1cc(=O)n2nc(N3CCc4ncc(-c5ccc(C6CC6)nc5)cc4C3)c(C)c(C)c2n1 [Compound 1-128, 7-(3-(6-cyclopropylpyridin-3-yl)-7,8-dihydro-1,6-naphthyridin-6(5H)-yl)-2,8,9-trimethyl-4H-pyrimido[1,2-b]pyridazin-4-one] | 80% | 768 nM
12 | CCc1ccccc1-c1cnc2c(c1)CN(c1nn3c(=O)cc(C)nc3cc1C)CC2 [Compound 1-232, 7-(3-(2-ethylphenyl)-7,8-dihydro-1,6-naphthyridin-6(5H)-yl)-2,8-dimethyl-4H-pyrimido[1,2-b]pyridazin-4-one] | 57% | 441 nM
13 | Cc1cc2nccc(=O)n2nc1N1CCc2ncc(-c3cccnc3C(C)(C)O)cc2C1 [Compound 1-418, 7-(3-(2-(2-hydroxypropan-2-yl)pyridin-3-yl)-7,8-dihydro-1,6-naphthyridin-6(5H)-yl)-8-methyl-4H-pyrimido[1,2-b]pyridazin-4-one] | 48% | –
14 | Cc1cc(=O)n2nc(N3CCc4ncc(-c5cnn(C6CC6)c5)cc4C3)c(C)c(C)c2n1 [Compound 1-183, 7-(3-(1-cyclopropyl-1H-pyrazol-4-yl)-7,8-dihydro-1,6-naphthyridin-6(5H)-yl)-2,8,9-trimethyl-4H-pyrimido[1,2-b]pyridazin-4-one] | 79% | 582 nM

Further lines, results first:

Row | Emax at 30 µM | EC50 | Structure (SMILES)
15 | 89% | 108 nM | Cc1cc2nccc(=O)n2nc1N1CCc2ncc(N3CC(C)Oc4cc(F)ccc43)cc2C1 (centres unmarked) [Compound 2-55, 7-(3-(7-fluoro-2-methyl-2,3-dihydro-4H-benzo[b][1,4]oxazin-4-yl)-7,8-dihydro-1,6-naphthyridin-6(5H)-yl)-8-methyl-4H-pyrimido[1,2-b]pyridazin-4-one]
16 | 80% | 125 nM | Cc1cc2nccc(=O)n2nc1N1CCc2ncc(N3CC(C)(C)Oc4ccccc43)cc2C1 [Compound 2-51, 7-(3-(2,2-dimethyl-2,3-dihydro-4H-benzo[b][1,4]oxazin-4-yl)-7,8-dihydro-1,6-naphthyridin-6(5H)-yl)-8-methyl-4H-pyrimido[1,2-b]pyridazin-4-one]
17 | 85% | 7 nM | Cc1cc2nc(C3CC3)cc(=O)n2nc1N1CCc2ncc(N3CCCn4nccc43)cc2C1 [Compound 2-15, 2-cyclopropyl-7-(3-(6,7-dihydropyrazolo[1,5-a]pyrimidin-4(5H)-yl)-7,8-dihydro-1,6-naphthyridin-6(5H)-yl)-8-methyl-4H-pyrimido[1,2-b]pyridazin-4-one]
18 | 98% | 9 nM | Cc1cc(=O)n2nc(N3CCc4ncc(N5CCOc6ncccc65)cc4C3)c(C)cc2n1 [Compound 2-17, 7-(3-(2,3-dihydro-1H-pyrido[2,3-b][1,4]oxazin-1-yl)-7,8-dihydro-1,6-naphthyridin-6(5H)-yl)-2,8-dimethyl-4H-pyrimido[1,2-b]pyridazin-4-one]
19 | 128% | 39 nM | Cc1nc2c(C)c(C)c(N3CCc4ncc(N5CCCn6nccc65)cc4C3)nn2c(=O)c1F [Compound 2-12, 7-(3-(6,7-dihydropyrazolo[1,5-a]pyrimidin-4(5H)-yl)-7,8-dihydro-1,6-naphthyridin-6(5H)-yl)-3-fluoro-2,8,9-trimethyl-4H-pyrimido[1,2-b]pyridazin-4-one]
20 | 103% | 13 nM | Cc1c(N2CCc3ncc(N4CCCn5nccc54)cc3C2)nn2c(=O)ccnc2c1C [Compound 2-36, 7-(3-(6,7-dihydropyrazolo[1,5-a]pyrimidin-4(5H)-yl)-7,8-dihydro-1,6-naphthyridin-6(5H)-yl)-8,9-dimethyl-4H-pyrimido[1,2-b]pyridazin-4-one]
21 | 79% | 489 nM | COc1cc(Cl)cc(Nc2cnc3c(c2)CN(c2nn4c(=O)ccnc4cc2C)CC3)c1 [Compound 2-82, 7-(3-((3-chloro-5-methoxyphenyl)amino)-7,8-dihydro-1,6-naphthyridin-6(5H)-yl)-8-methyl-4H-pyrimido[1,2-b]pyridazin-4-one]
